According to patent US20150087673A1, “METHODS FOR USING AND BIOMARKERS FOR AMPK-ACTIVATING COMPOUNDS” (RIGEL PHARMACEUTICALS, INC., priority 2013, published 2015):

system: AMPK; test: AMPK activation assay (enzyme-linked immunosorbent assay); format: cell-based
How it was run: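 Test compounds were added, and kinase activation was then detected by immunoassay following established kit procedures.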

| EC50 [nM] | SMILES |
| --- | --- |
| > 10000 | COc1ccc(OC2CCN(C(=O)c3ccc(C(=O)NC4CCN(Cc5ccc(C#N)cc5)CC4)cn3)CC2)c(NC(=O)CCOCCOCCOCCOCCNC(=O)CCCC[C@@H]2SC[C@@H]3NC(=O)N[C@@H]32)c1 [Compound 394, N-(1-(4-cyanobenzyl)piperidin-4-yl)-6-(4-(4-methoxy-2-(17-oxo-21-((3aS,4S,6aR)-2-oxohexahydro-1H-thieno[3,4-d]imidazol-4-yl)-4,7,10,13-tetraoxa-16-azahenicosanamido)phenoxy)piperidine-1-carbonyl)nicotinamide] |
| < 500 | N#Cc1ccc(CN2CCC(NC(=O)c3ccc(C(=O)N4CC[C@H](Oc5ccc(C#N)cc5)[C@@H](F)C4)cn3)CC2)cc1 (relative stereo) [Compound 279, N-(1-(4-cyanobenzyl)piperidin-4-yl)-5-((trans)-4-(4-cyanophenoxy)-3-fluoropiperidine-1-carbonyl)picolinamide] |
| < 500 | COc1ccc(CN2CCC(NC(=O)c3ccc(C(=O)N4CCN(Cc5ccc(F)cc5)CC4)cn3)CC2)cc1 [Compound 117, 5-(4-(4-fluorobenzyl)piperazine-1-carbonyl)-N-(1-(4-methoxybenzyl)piperidin-4-yl)picolinamide] |
| < 500 | CC(=O)c1ccc(Oc2ccc(NC(=O)c3ccc(C(=O)N4CCC(C(=O)c5ccc(F)cc5F)CC4)nc3)cn2)cc1 [Compound 464, N-(6-(4-acetylphenoxy)pyridin-3-yl)-6-(4-(2,4-difluorobenzoyl)piperidine-1-carbonyl)nicotinamide] |
| 1000 to 5000 | N#Cc1ccc(OC2CCN(C(=O)c3ccc(C(=O)NC4CCN(c5ccc(F)cc5)CC4)cn3)CC2)cc1 [Compound 422, 6-(4-(4-cyanophenoxy)piperidine-1-carbonyl)-N-(1-(4-fluorophenyl)piperidin-4-yl)nicotinamide] |
| < 500 | COc1ccc(C(=O)C2CCN(C(=O)c3ccc(C(=O)N[C@H]4CC[C@@H](Oc5ccc(C(F)(F)F)cc5)CC4)nc3)CC2)cc1 [Compound 192, 5-(4-(4-methoxybenzoyl)piperidine-1-carbonyl)-N-((cis)-4-(4-(trifluoromethyl)phenoxy)cyclohexyl) picolinamide] |
| < 500 | O=C(Nc1ccc(Cc2ccccc2)cc1)c1ccc(C(=O)N2CCN(Cc3ccc(F)cc3)CC2)cn1 [Compound 10, N-(4-benzylphenyl)-5-(4-(4-fluorobenzyl)piperazine-1-carbonyl)picolinamide] |
| < 500 | N#Cc1ccc(Oc2ccc(NC(=O)c3ccc(C(=O)N4CCC(C(=O)c5ccc(F)cc5F)CC4)nc3)cn2)cc1 [Compound 463, N-(6-(4-cyanophenoxy)pyridin-3-yl)-6-(4-(2,4-difluorobenzoyl)piperidine-1-carbonyl)nicotinamide] |
| < 500 | O=C(NC1CCN(Cc2cc(F)cc(F)c2)CC1)c1ccc(C(=O)N2CCN(Cc3ccc(F)cc3)CC2)cn1 [Compound 49, N-(1-(3,5-difluorobenzyl)piperidin-4-yl)-5-(4-(4-fluorobenzyl)piperazine-1-carbonyl)picolinamide] |
| < 500 | COc1ccc(C(=O)C2CCN(C(=O)c3ccc(C(=O)Nc4ccc(Oc5ccc(C(C)=O)cc5)nc4)cn3)CC2)cc1 [Compound 462, N-(6-(4-acetylphenoxy)pyridin-3-yl)-6-(4-(4-methoxybenzoyl)piperidine-1-carbonyl)nicotinamide] |
| 500 to 1000 | CC(C)(C)OC(=O)NCC#Cc1cc(C(=O)N2CCN(Cc3ccc(F)cc3)CC2)cnc1C(=O)NC1CCN(Cc2ccc(C#N)cc2)CC1 [Compound 164, tert-butyl 3-(2-(1-(4-cyanobenzyl)piperidin-4-ylcarbamoyl)-5-(4-(4-fluorobenzyl)piperazine-1-carbonyl)pyridin-3-yl)prop-2-ynylcarbamate] |
| < 500 | O=C(NC1CCN(C(=O)c2ccccc2)CC1)c1ccc(C(=O)N2CCN(Cc3ccc(F)cc3)CC2)cn1 [Compound 8, N-(1-(benzoyl)piperidin-4-yl)-5-(4-(4-fluorobenzyl)piperazine-1-carbonyl)picolinamide] |
| > 10000 | CC(C)N1CCN(C(=O)c2ccc(C(=O)N3CCN(CCc4ccccc4)CC3)nc2)CC1 [Compound 91, (4-isopropylpiperazin-1-yl)(6-(4-phenethylpiperazine-1-carbonyl)pyridin-3-yl)methanone] |
| 500 to 1000 | N#Cc1ccc(CNC(=O)c2ccc(-c3ccc(C(=O)N4CCN(Cc5ccc(F)cc5)CC4)cn3)cc2)cc1 [Compound 35, (6-(4-(4-cyanobenzylcarbamoyl)phenyl)pyridin-3-yl)(4-(4-fluorobenzyl)piperazin-1-yl)methanone] |
| 5000 to 10000 | O=C(N[C@@H]1CCNC[C@@H]1F)c1ccc(C(=O)N2CCN(Cc3ccc(F)cc3)CC2)cn1 (relative stereo) [Compound 102, 5-(4-(4-fluorobenzyl)piperazine-1-carbonyl)-N-(cis-3-fluoropiperidin-4-yl)picolinamide] |
| < 500 | N#Cc1ccc(CN2CC[C@@H](NC(=O)c3ccc(C(=O)N4CCC(Oc5ccc(S(=O)(=O)C(F)(F)F)cc5)CC4)nc3)[C@H](F)C2)cc1 (relative stereo) [Compound 451, N-((trans)-1-(4-cyanobenzyl)-3-fluoropiperidin-4-yl)-6-(4-(4-(trifluoromethylsulfonyl)phenoxy)piperidine-1-carbonyl)nicotinamide] |

| EC50 [nM] | SMILES |
| --- | --- |
| 1000 to 5000 | COc1ccc(C(=O)C2CCN(c3ccc(C(=O)N4CCN(Cc5ccc(F)cc5)CC4)cn3)CC2)cc1 [Compound 189, (4-(4-fluorobenzyl)piperazin-1-yl)(6-(4-(4-methoxybenzoyl)piperidin-1-yl)pyridin-3-yl)methanone] |
| < 500 | N#Cc1ccc(CN2CCC(NC(=O)c3ccc(C(=O)N4CCC(C(=O)c5ccc(C#N)cc5)CC4)cn3)CC2)cc1 [Compound 369, 5-(4-(4-cyanobenzoyl)piperidine-1-carbonyl)-N-(1-(4-cyanobenzyl)piperidin-4-yl)picolinamide] |
| < 500 | COc1ccc(OC2CCN(C(=O)c3ccc(C(=O)NC4CCN(Cc5ccc(C#N)cc5)CC4)cn3)CC2)c([N+](=O)[O-])c1 [Compound 378, N-(1-(4-cyanobenzyl)piperidin-4-yl)-6-(4-(4-methoxy-2-nitrophenoxy)piperidine-1-carbonyl)nicotinamide] |
| < 500 | N#Cc1ccc(CN2CCC(NC(=O)c3ccc(C(=O)N4CCC(C(O)c5ccc(F)cc5)CC4)cn3)CC2)cc1 (centres unmarked) [Compound 142, N-(1-(4-cyanobenzyl)piperidin-4-yl)-5-(4-((4-fluorophenyl)(hydroxy)methyl)piperidine-1-carbonyl)picolinamide] |
| < 500 | O=C(Nc1ccc(Oc2ccc(F)cc2)nc1)c1ccc(C(=O)N2CCC(Oc3ccc(F)cc3F)CC2)nc1 [Compound 343, 6-(4-(2,4-difluorophenoxy)piperidine-1-carbonyl)-N-(6-(4-fluorophenoxy)pyridin-3-yl)nicotinamide] |
| < 500 | CC(=O)c1ccc(Oc2ccc(NC(=O)c3ccc(C(=O)N4CCC(Oc5ccc(S(=O)(=O)C6CC6)cc5)CC4)nc3)cn2)cc1 [Compound 486, N-(6-(4-acetylphenoxy)pyridin-3-yl)-6-(4-(4-(cyclopropylsulfonyl)phenoxy)piperidine-1-carbonyl)nicotinamide] |
| 1000 to 5000 | CC(C)(c1ccc(C#N)cc1)N1CCC(NC(=O)c2ccc(C(=O)N3CCN(Cc4ccc(F)cc4)CC3)cn2)CC1 [Compound 111, N-(1-(2-(4-cyanophenyl)propan-2-yl)piperidin-4-yl)-5-(4-(4-fluorobenzyl)piperazine-1-carbonyl)picolinamide] |
| 1000 to 5000 | CC(=O)Nc1cccc(OC2CCN(C(=O)c3ccc(C(=O)NC4CCN(Cc5ccc(C#N)cc5)CC4)cn3)CC2)c1 [Compound 411, 6-(4-(3-acetamidophenoxy)piperidine-1-carbonyl)-N-(1-(4-cyanobenzyl)piperidin-4-yl)nicotinamide] |
| < 500 | COc1ccc(OC2CCN(C(=O)c3ccc(C(=O)NC4CCN(Cc5ccc(C#N)cc5)CC4)nc3)CC2)cc1 [Compound 143, N-(1-(4-cyanobenzyl)piperidin-4-yl)-5-(4-(4-methoxyphenoxy)piperidine-1-carbonyl)picolinamide] |
| 1000 to 5000 | O=C(NC1CCN(Cc2ccccc2)CC1)c1ccc(Nc2cccc(Oc3ccccc3)c2)cn1 [Compound 112, N-(1-benzylpiperidin-4-yl)-5-(3-phenoxyphenylamino)picolinamide] |
| < 500 | COc1ccc(C(=O)N2CCN(C(=O)c3ccc(C(=O)NC4CCN(Cc5ccc(C#N)cc5)CC4)nc3)CC2)cc1 [Compound 77, N-(1-(4-cyanobenzyl)piperidin-4-yl)-5-(4-(4-methoxybenzoyl)piperazine-1-carbonyl)picolinamide] |
| 1000 to 5000 | N#Cc1ccc(CN2CCC(NC(=O)c3ccc(N4CCCC(Oc5ccc(C#N)cc5)C4)cn3)CC2)cc1 (centres unmarked) [Compound 265, N-(1-(4-cyanobenzyl)piperidin-4-yl)-5-(3-(4-cyanophenoxy)piperidin-1-yl)picolinamide] |
| 500 to 1000 | CS(=O)(=O)c1ccc(C(=O)C2CCN(C(=O)c3ccc(C(=O)N[C@@H]4CCN(Cc5ccc(C#N)cc5)C[C@H]4F)nc3)CC2)cc1 (relative stereo) [Compound 252, N-((trans)-1-(4-cyanobenzyl)-3-fluoropiperidin-4-yl)-5-(4-(4-(methylsulfonyl)benzoyl)piperidine-1-carbonyl)picolinamide] |
| < 500 | CC(C)Oc1ccc(CN2CCC(NC(=O)c3ccc(C(=O)N4CCC(C(=O)c5ccc(N6CCCC6)cc5)CC4)nc3)CC2)cc1 [Compound 446, N-(1-(4-isopropoxybenzyl)piperidin-4-yl)-6-(4-(4-(pyrrolidin-1-yl)benzoyl)piperidine-1-carbonyl)nicotinamide] |
| < 500 | CS(=O)(=O)c1ccc(OC2CCN(C(=O)c3ccc(C(=O)Nc4ccc(Oc5ccc(F)cc5)nc4)nc3)CC2)cc1 [Compound 231, N-(6-(4-fluorophenoxy)pyridin-3-yl)-5-(4-(4-(methylsulfonyl)phenoxy)piperidine-1-carbonyl)picolinamide] |
| 5000 to 10000 | O=C(c1ccc(Nc2ccc(-c3ccccc3)cc2)nc1)N1CCN(Cc2ccc(F)cc2)CC1 [Compound 37, (6-(4-phenylphenylamino)pyridin-3-yl)(4-(4-fluorobenzyl)piperazin-1-yl)methanone] |
